Source: publication PMC7349657, “Efficient Targeted Degradation via Reversible and Irreversible Covalent PROTACs” (Journal of the American Chemical Society, 2020)

Columns and labels:
[1] = target: T1, BTK kinase domain (Homo sapiens, UniProt Q06187); test: LC-MS covalent binding and ibrutinib competition assay with recombinant BTK kinase domain; conditions: for protein labeled by the PROTAC / formation of covalent complex with BTK: 3 μM compound + 2 μM BTK; for protein labeled by the PROTAC / displacement by ibrutinib (ibrutinib adduct formation) / formation of covalent complex with BTK: LC-MS; for displacement by ibrutinib (ibrutinib adduct formation): 40 μM ibrutinib added to preformed complex; for displacement by ibrutinib (ibrutinib adduct formation) / time scale of exchange / dissociation of the covalent complex: 37 °C; for time scale of exchange / dissociation of the covalent complex: 40 μM ibrutinib
T1 construct: human BTK kinase domain (residues 387–659); 6xHis (N, cleaved yes); TEV protease cleavage site (N, cleaved yes); made in house; virus produced in Sf9, expression in Tni insect cells
Procedure: We also used LC-MS to directly observe the formation of covalent complexes with recombinant BTK and measure their dissociation kinetics (Figure 6C, D, Supporting Figure 5A).
Binding experiments were performed in Tris 20 mM pH = 8, 50 mM NaCl, and 1 mM DTT. BTK kinase domain was diluted to 2 μM in buffer, and 3 μM PROTAC was added by adding 1/100th volume from a 300 μM solution. The PROTACs were incubated with BTK at room temperature for various times. For testing by LCMS, 24 μL of the solution was mixed with 6 μL of 2.4% formic acid, and 10 μL was injected to LCMS.
For binding experiments in the presence of glutathione, freshly dissolved reduced glutathione was incubated at 6.14 mM with 4 μM compounds for 30 min at room temperature in Tris 20 mM pH = 8 and 50 mM NaCl. At this point BTK was added to a concentration of 2 μM (diluting the GSH to 5 mM and the compounds to 3.25 μM), and LC-MS was used as described previously to follow the covalent labeling of BTK.
For data analysis, the raw spectra were deconvoluted using a 27 000:37 000 Da window and 1 Da resolution. The signal from masses 27 000:30 000 and 34 000:37 000 (which contained no peaks) was averaged and subtracted from the whole signal.
Cloning and Over Expression of BTK
Human wild type BTK full length was obtained from the ORFeome (ref: http://www.orfeomecollaboration.org/), from which the full human BTK gene (clone HsCD00433457) was inserted into the mammalian expression vector pCDNA3.1. In parallel, a mutant BTK C481S was constructed by assemble 2 PCR products harboring the desired mutation and cloned into pCDNA3.1. Both constructs contain a C -terminal 6x-His tag and three amino acids sequence (GTK) linker between the BTK coding sequence and the His tag.
The expression of hBTK is driven by the CMV promoter. U2OS cells (ATCC HTB-96) were grown to 70% confluency in a 10 cm plate, transfected with either hBTK plasmid (BTK WT or C481S) using Lipofectamine 2000 reagent (Thermo Fisher Scientific) according to manufacturer’s instructions. Cells were subsequently incubated for 48 hours post transfection, trypsinized and resuspended in 12 mL medium, and divided 2 mL per well in a 6-well plates and left to adhere over-night. 72 hours post transfection 100 nM PROTACs were added for 24 hours and BT K was measured by performing western blot procedure as described in the main […]
Expression and Purification of Recombinant BTK
The expression and purification of human BTK kinase domain (residues 387–659) was based on the method used by Bradsha w JM. et al1. The kinase domain was inserted into pFastBac-1 with an N-terminal 6× -His tag followed by a TEV protease cleavage site (The plasmid was a gift from Dr. Ville Paavilainen, University of Helsinki). Viruses were produced […]
cells by infection of 2 L of cultured cells with 1:200 mL virus solution such that cell growth was terminated after 3 days. The cells were collected by centrifugation (800 g for 15 minutes), and the pellet was resu spended in 50 mL ly sis buf fer (10 mM Hepes, pH 7.5, 400 mM NaCl, 1.5 mM DTT) supplemented with 1× protease inhibitor cocktail (Roche). The cells were lysed by five passages through a cell homogenizer. The cellular debris wer e pelleted by centrifugation (30,000 g for 30 minutes). The protein was bound in batch to nickel– nitrilotriacetic acid agarose beads in binding buffer (lysis buffer supplemented with 20 mM imidazole) for 4 hours at 4°C. The beads were washed with additional binding buffer ( four 5 mL washes), and the protein was eluted with four 0.5 mL portions of elution buffer (lysis buffer […]
supplemented with 300 mM imidazole). The His tag was cleaved by the addition of TEV protease with concomitant dialysis overnight into cleavage buffer (50 mM Tris, pH 8.0, 0.5 mM EDTA, 1 mM DTT) at 4°C. The resulting soluble protein was passed ov er Ni -NTA beads to remove the protease and purified further by gel filtration on a HiLoad_16/60_Superdex_75 (GE Healthcare) column equilibrated with 20 mM Tris, pH 8.0, 50 mM NaCl, 1 mM DTT. The […]

[2] = target: wild-type BTK (Homo sapiens, UniProt Q06187); test: In vitro kinase activity assay, wild-type BTK (Nanosyn)
Sequence of wild-type BTK (Q06187 whole entry, species assumed): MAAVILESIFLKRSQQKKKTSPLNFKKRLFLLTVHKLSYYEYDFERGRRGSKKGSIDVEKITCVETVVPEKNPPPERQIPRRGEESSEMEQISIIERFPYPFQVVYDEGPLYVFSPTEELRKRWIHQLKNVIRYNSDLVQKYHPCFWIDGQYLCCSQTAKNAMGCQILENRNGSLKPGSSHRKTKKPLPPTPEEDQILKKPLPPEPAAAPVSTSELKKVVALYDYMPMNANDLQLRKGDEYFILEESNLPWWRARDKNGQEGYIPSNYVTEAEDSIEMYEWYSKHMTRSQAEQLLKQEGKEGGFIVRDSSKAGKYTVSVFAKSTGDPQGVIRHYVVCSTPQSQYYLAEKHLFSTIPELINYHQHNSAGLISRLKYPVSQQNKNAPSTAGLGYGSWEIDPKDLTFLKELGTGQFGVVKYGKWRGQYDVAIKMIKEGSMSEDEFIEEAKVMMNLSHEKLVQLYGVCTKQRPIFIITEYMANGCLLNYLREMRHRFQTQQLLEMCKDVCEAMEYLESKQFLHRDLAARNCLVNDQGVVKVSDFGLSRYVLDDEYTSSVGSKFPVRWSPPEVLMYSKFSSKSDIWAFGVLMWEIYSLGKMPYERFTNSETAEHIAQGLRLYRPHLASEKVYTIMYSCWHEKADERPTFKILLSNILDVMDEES

T1 sequence (Q06187 387-659): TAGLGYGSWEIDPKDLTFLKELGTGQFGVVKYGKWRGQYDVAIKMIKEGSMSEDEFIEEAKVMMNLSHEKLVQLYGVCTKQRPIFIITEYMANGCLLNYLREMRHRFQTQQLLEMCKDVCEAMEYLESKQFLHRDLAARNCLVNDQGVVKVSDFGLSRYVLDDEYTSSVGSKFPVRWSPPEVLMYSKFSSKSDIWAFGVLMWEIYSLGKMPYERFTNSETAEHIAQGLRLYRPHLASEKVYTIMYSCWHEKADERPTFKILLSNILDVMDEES

Row | Structure (SMILES) | protein labeled by the PROTAC [1] | IC50 [2] | formation of covalent complex with BTK ([1]; room temperature) | ibrutinib labeling of BTK in presence of the PROTAC ([1]; 4 μM ibrutinib, 1 h, room temperature) | time to full ibrutinib labeling of BTK in presence of preincubated PROTAC ([1]; 4 μM ibrutinib, room temperature) | time scale of exchange / dissociation of the covalent complex [1] | displacement by ibrutinib (ibrutinib adduct formation) [1]
1 | Nc1ncnc2c1c(-c1ccc(Oc3ccccc3)cc1)nn2C1CCCN(C(=O)C=CCOCCOCCOCCOCCOCCOc2cccc3c2C(=O)N(C2CCC(=O)NC2=O)C3=O)C1 (centres unmarked) [IR-1] | 80–85% | 2 nM |  |  |  |  | no ibrutinib adduct was observed even after 28 h
2 | Nc1ncnc2c1c(-c1ccc(Oc3ccccc3)cc1)nn2C1CCCN(C(=O)CCCCCCOCCOCCOCCOCCOc2cccc3c2C(=O)N(C2CCC(=O)NC2=O)C3=O)C1 (centres unmarked) [NC-1] |  | 16 nM | forms no covalent adduct | 100% | ≤ 1 h |  | 

More lines, main results first:

Row | protein labeled by the PROTAC [1] | IC50 [2] | formation of covalent complex with BTK ([1]; room temperature) | ibrutinib labeling of BTK in presence of the PROTAC ([1]; 4 μM ibrutinib, 1 h, room temperature) | time to full ibrutinib labeling of BTK in presence of preincubated PROTAC ([1]; 4 μM ibrutinib, room temperature) | time scale of exchange / dissociation of the covalent complex [1] | Structure (SMILES) | displacement by ibrutinib (ibrutinib adduct formation) [1]
3 | 80–85% | 14 nM |  |  |  |  | Nc1ncnc2c1c(-c1ccc(Oc3ccccc3)cc1)nn2C1CCCN(C(=O)C=CCCCCOCCOCCOCCOCCOc2cccc3c2C(=O)N(C2CCC(=O)NC2=O)C3=O)C1 (centres unmarked) [IR-2] | no ibrutinib adduct was observed even after 28 h
4 |  | 1 nM |  |  |  | 10 to 20 h | N#CC(=CCCCCOCCOCCOCCOCCOc1cccc2c1C(=O)N(C1CCC(=O)NC1=O)C2=O)C(=O)N1CCCC(n2nc(-c3ccc(Oc4ccccc4)cc3)c3c(N)ncnc32)C1 (centres unmarked) [RC-2] | gradual displacement of the PROTAC by ibrutinib
5 |  | 0.4 nM | extremely fast |  |  | 10 to 20 h | CC(C)(C=C(C#N)C(=O)N1CCCC(n2nc(-c3ccc(Oc4ccccc4)cc3)c3c(N)ncnc32)C1)CCCOCCOCCOCCOCCOc1cccc2c1C(=O)N(C1CCC(=O)NC1=O)C2=O (centres unmarked) [RC-3] | gradual displacement of the PROTAC by ibrutinib
